Results on 1 compound are retold here after US8013163B2 (Astex Therapeutics Limited, priority 2005, dated 2011).

A short description of data set [1]: Solubility of the mesylate salt in aqueous solution at pH 1 to 11 (UV-Vis assay). The format is physicochemical. Here is the method:
Solutions were prepared by titrating standard hydrochloric acid with dilute sodium hydroxide solution to a desired pH. […] These solutions were then used to assess the solubility of 4-(2,6-dichlorobenzoylamino)-1/i-pyrazole-3-carboxylic acid piperidin-4-ylamide methanesulphonate.
In each experiment, 150 mg of the methanesulphonate salt was weighed into a 5 ml clear vial and 3-4 ml of a solution of a given pH was added. […] In each case, the solution was then filtered through a 0.22 μm PVDF filter, the pH of the clear solution obtained was recorded, and the solution was assayed for methanesulphonate salt content using a UV-Vis spectrophotometer and standard solutions of the salt.

Data set [2] can be described thus: Stability of acetate buffered salt solution (autoclaving, heating, freeze-thaw). The format is physicochemical. How it is done:
Autoclaving at 121° C. for 15 minutes, followed by heating the solution further at 40° C., 55° C. or 75° C. for 10-12 days, were carried out on the acetate buffered salt solution.

Counter-ions that a name gives are not always drawn.

The solubility is the concentration that dissolves in the medium under given conditions. Regarding `O=C(NC1CCNCC1)c1n[nH]cc1NC(=O)c1c(Cl)cccc1Cl` [mesylate salt, 4-(2,6-dichlorobenzoylamino)-1H-pyrazole-3-carboxylic acid piperidin-4-ylamide methanesulphonate], the solubility at 3 h in data set [1] (aqueous solution, 4 °C, pH 0.26, simulated gastric fluid, thermodynamic from solid, initial pH 0.26, final pH 0.26) was 9.85 mg/mL; in data set [1] (aqueous solution, 4 °C, pH 1, simulated gastric fluid, thermodynamic from solid, initial pH 1.00, final pH 1.00), 39.4 mg/mL; in data set [1] (aqueous solution, 4 °C, pH 2.51, aqueous buffer, thermodynamic from solid, initial pH 2.51, final pH 2.51), 41.5 mg/mL; in data set [1] (aqueous solution, 4 °C, pH 4.99, aqueous buffer, thermodynamic from solid, initial pH 4.99, final pH 4.99) it was 42.4 mg/mL; in data set [1] (aqueous solution, 4 °C, pH 7.34, aqueous buffer, thermodynamic from solid, initial pH 7.34, final pH 7.34), 45.9 mg/mL; in data set [1] (aqueous solution, 4 °C, pH 7.4, aqueous buffer, thermodynamic from solid, initial pH 9.04, final pH 7.40), 30.4 mg/mL. The solubility at 3 h in data set [1] (aqueous solution, 4 °C, pH 7.69, aqueous buffer, thermodynamic from solid, initial pH 7.69, final pH 7.69) was 37.9 mg/mL; in data set [1] (aqueous solution, 4 °C, pH 7.9, aqueous buffer, thermodynamic from solid, initial pH 10.97, final pH 7.90), 30.9 mg/mL; in data set [1] (aqueous solution, 4 °C, pH 8.17, aqueous buffer, thermodynamic from solid, initial pH 8.17, final pH 8.17), 43.2 mg/mL; in data set [1] (aqueous solution, pH 0.37, simulated gastric fluid, thermodynamic from solid, ambient temperature, initial pH 0.26, final pH 0.37) it was 15.7 mg/mL; in data set [1] (aqueous solution, pH 1.06, simulated gastric fluid, thermodynamic from solid, ambient temperature, initial pH 1.00, final pH 1.06), 40.3 mg/mL; in data set [1] (aqueous solution, pH 3, aqueous buffer, thermodynamic from solid, ambient temperature, initial pH 2.51, final pH 3.00), 44.9 mg/mL. Moreover, the solubility at 3 h in data set [1] (aqueous solution, pH 6.73, aqueous buffer, thermodynamic from solid, ambient temperature, initial pH 4.99, final pH 6.73) was 44.3 mg/mL; in data set [1] (aqueous solution, pH 7.3, aqueous buffer, thermodynamic from solid, ambient temperature, initial pH 7.34, final pH 7.30), 44.5 mg/mL; in data set [1] (aqueous solution, pH 7.4, aqueous buffer, thermodynamic from solid, ambient temperature, initial pH 8.17, final pH 7.40), 44.5 mg/mL; in data set [1] (aqueous solution, pH 7.4, aqueous buffer, thermodynamic from solid, ambient temperature, initial pH 9.04, final pH 7.4), 35.4 mg/mL; in data set [1] (aqueous solution, pH 7.6, aqueous buffer, thermodynamic from solid, ambient temperature, initial pH 10.97, final pH 7.6), 34.6 mg/mL; in data set [1] (aqueous solution, pH 7.9, aqueous buffer, thermodynamic from solid, ambient temperature, initial pH 7.69, final pH 7.90) it was 42.1 mg/mL. In data set [1] (aqueous solution, pH 0.504, simulated gastric fluid, thermodynamic from solid, Solution 1 after 6 days in the laboratory, precipitate filtered, pH 0.504 / 0.50), the solubility at 6 days was 13.9 mg/mL. For the same compound, in data set [1] (pH>7 and pH<3, ambient temperature), the “behaviour of solution on standing” value was “precipitation of the salt was observed on standing”. The “precipitation in freeze-thaw stability tests” value in data set [2] (acetate buffered salt solution) is listed as “did not result in precipitation”. Moreover, in data set [2] (acetate buffered salt solution), the “stability of solution pH and salt in freeze-thaw tests” value is on record as “stable”. In data set [2] (acetate buffered solution, autoclaving at 121° C. for 15 minutes, then 40° C., 55° C. or 75° C. for 10-12 days), the “stability of solution pH and salt” value is recorded as “stable”.
